Values quoted from earlier work as cited in publication PMC4851381, “High Throughput Screening Identifies Novel Lead Compounds with Activity against Larval, Juvenile and Adult Schistosoma mansoni” (PLoS Neglected Tropical Diseases, 2016).

Key:
Cyp3A4 = test system: Cyp3A4; parameters: method as in ChEMBL; conditions: ref ChEMBL; cited from earlier work
Cyp2C19 = test system: Cyp2C19; parameters: method as in ChEMBL; conditions: ref ChEMBL; cited from earlier work

Which results are given for `Cc1[nH]c2ccccc2c1C(c1ccccn1)N1CCC(C)CC1` (centres unmarked) [CHEMBL1517121]?
AC50 (Cyp3A4): 2 µM; AC50 (Cyp2C19): 13 µM
